# According to US11878012B2, “Compositions and methods for treating traumatic brain injury” (Board of Regents, the University of Texas System, priority 2020, dated 2024):
# Assays:
# seizure susceptibility = assay: PTZ kindling after sham or CCI-TBI; details: M084 10 mg/kg s.c. 1 hour before each PTZ 35 mg/kg, from 7 days after surgery
# Method: The fact that only a portion of TBI cases become susceptible to epileptic seizures is a yet unanswered phenomenon in both preclinical and clinical studies. Therefore, we investigated seizure susceptibility within the CCI-TBI model to gain a greater understanding as to the etiology of hyperexcitability spread occurring post-injury. […] In our seizure susceptibility paradigm, 1 or 7 days after experimental procedure, mice were challenged with a subconvulsant dose of PTZ (35 mg/kg s.c.) once-daily to elicit kindling epileptogenesis (FIG. 6A). The progression of motor seizure behavior was observed and timed by direct observation linked to EEG activity (FIG. 6B).
# We wished to understand if the TRPC channel upregulation after TBI could be targeted to impede epileptogenic activity. […] Seizure susceptibility was standardized according to the latency to forelimb clonus lasting greater than 5 sec.
# Controlled cortical impact traumatic brain injury. The controlled cortical impact (CCI) traumatic brain injury (TBI) model was applied, with a closed skull impact approach. The CCI model causes TBI, but the skull remains intact with minimal hematoma. This type of brain injury model most closely simulates the TBI experienced during blunt-head injuries from vehicular accidents or falls. Mice were anesthetized with isoflurane (3% induction, 1% maintenance) in 100% O2. Body temperature of 37° C. was maintained using a temperature-controlled heated surgical table. The skull was fixed with ear-bars into a stereotaxic frame. A small midline incision was made on the scalp using aseptic surgical techniques. Impact was delivered by cylindrical probe of 5 mm diameter with an Impact One neurotrauma impactor (Leica Biosystems). A calibrated impact was delivered at 4.5 m/sec to a depth of 1 mm and 0.5 sec dwell time to the right parietal cortex (−1.8 mm ML, +2.0 mm AP, −1.0 mm DV). […] The scalp was then sutured closed and mice were placed in a warming recirculation unit and monitored until fully awake and moving freely. […] For consistency, the left hemisphere of both sham and TBI mice is designated as “contralateral” brain, and the right hemisphere is referred to as “ipsilateral”, despite no impact injury occurring in sham mice.
# In vivo electroencephalograms. To determine seizure frequency and record brain susceptibility to seizures, mice were implanted with electroencephalogram (EEG) electrodes 24 hr after sham or TBI. A three-channel tethered EEG system was used. The electrode pedestal (P1 Technologies) was secured to the skull with three anchored dental screws and connected to a preamplifier with gain of 25. The three leads were inserted over the left frontal cortex, left parietal cortex, and depth electrode lead into the hippocampus. The Stellate Harmonie acquisition hardware and software were used to collect coincident video and EEG activity. EEGs were inspected for presence of epileptiform spikes and seizures.
# Seizure susceptibility assays. Pentylenetetrazol kindling model. Seizure susceptibility was tested with the GABAA receptor antagonist pentylenetetrazol (PTZ) for progression of motor seizure activity. Mice were injected with PTZ (35 mg/kg, s.c.) once per day and scored for motor behavioral seizures.
# TRPC4/5 channels = details: description from literature; cited from earlier work
smiles,measurement,setting,value
"CCCCNc1nc2ccccc2[nH]1 [M084, N-butyl-1H-benzimidazol-2-amine]",days to clonic seizures,seizure susceptibility,10.6 ± 0.5 days
same,days to demonstrate myoclonic jerks,seizure susceptibility,7.3 ± 0.6 days
same,days to tonic-clonic seizure behavior,seizure susceptibility,11.0 ± 0.6 days
same,effect on TRPC4/5 channels,TRPC4/5 channels,potent inhibitor or antagonist
